# Where two headings read alike, the source gives them in different places.
# How the values were obtained:
# hGCGR = target: T1, hGCGR (Homo sapiens, UniProt P47871); assay: Functional cAMP formation (HTRF) in HEK-293 clonal cells expressing hGCGR, 0.1% bovine casein, without or with 1.0% human serum albumin; type: cell-based; details: cAMP
# T1 construct: expressed in transfected cells
# Outline: (§1)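 Cells were stimulated with peptide for 30 min at 37° C, then intracellular cAMP was measured by competitive HTRF (665/620 nm ratio) and converted to nM using a cAMP standard curve. Relative EC50 and Emax came from four-parameter logistic fits of percent maximal response against peptide concentration.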
# hGLP-1R = hGLP-1R (Homo sapiens, UniProt P43220); assay: Functional cAMP formation (HTRF) in HEK-293 clonal cells expressing hGLP-1R, 0.1% bovine casein, without or with 1.0% human serum albumin; type: cell-based; set-up: expressed in transfected cells; details: for Emax: 0.1% bovine casein, arithmetic mean, read-out: hGLP-1R Emax, % ± SEM; for EC50: cAMP, read-out: hGLP-1R EC50, nM (SEM, n)
# Outline: as §1
# [1] = target: T2, human GIP receptor (hGIPR) (Homo sapiens, UniProt P48546); assay: [125I]-GIP binding, SPA with membranes of CHO cells expressing hGIPR
# T2 construct: expressed in transfected cells; crude membranes
# T2 sequence (P48546 22-466): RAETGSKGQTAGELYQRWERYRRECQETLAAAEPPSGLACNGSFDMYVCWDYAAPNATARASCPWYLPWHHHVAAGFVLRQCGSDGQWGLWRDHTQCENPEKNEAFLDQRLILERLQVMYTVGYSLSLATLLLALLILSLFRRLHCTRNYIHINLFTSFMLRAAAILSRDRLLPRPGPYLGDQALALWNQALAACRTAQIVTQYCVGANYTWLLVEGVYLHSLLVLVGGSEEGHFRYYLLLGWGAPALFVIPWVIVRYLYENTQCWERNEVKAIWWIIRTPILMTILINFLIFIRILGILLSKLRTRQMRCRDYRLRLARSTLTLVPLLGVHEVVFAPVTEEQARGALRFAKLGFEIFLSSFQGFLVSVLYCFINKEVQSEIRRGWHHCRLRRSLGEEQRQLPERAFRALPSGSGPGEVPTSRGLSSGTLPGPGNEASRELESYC
# [2] = target: T3, human Gcg receptor (hGcgR) (Homo sapiens, UniProt P47871); assay: [125I]-Glucagon binding, SPA with membranes of HEK293 cells expressing hGcgR
# T3 construct: expressed in transfected cells; crude membranes
# hGIPR = target: T4, hGIPR (Homo sapiens, UniProt P48546); assay: Functional cAMP formation (HTRF) in HEK-293 clonal cells expressing hGIPR, 0.1% bovine casein, without or with 1.0% human serum albumin; type: cell-based; details: for EC50: cAMP
# T4 construct: expressed in transfected cells
# T4 sequence (P48546 22-466): T2 sequence (P48546 22-466)
# Outline: as §1
# [3] = target: T5, human GLP-1 receptor (hGLP-1R) (Homo sapiens, UniProt P43220); assay: [125I]-GLP-1 binding, SPA with membranes of HEK293 cells expressing hGLP-1R; details: human GLP-1R; geometric mean (SEM, n); read-out: Binding Affinity Ki, nM (SEM, n) hGLP-1R
# T5 construct: expressed in transfected cells; crude membranes
# [4] = 37° C., 0.1% bovine casein (no human serum albumin), geometric mean, read-out: hGCGR EC50, nM (SEM, n)
# [5] = 37° C., 0.1% bovine casein and 1.0% human serum albumin, geometric mean (SEM, n), read-out: hGCGR EC50, nM (SEM, n)
# [6] = HEK293, cAMP, 37° C., percent of maximal response to GLP-1(7-36)NH2
# [7] = 37° C., 0.1% bovine casein (no human serum albumin), geometric mean
# [8] = human GcgR, geometric mean (SEM, n), read-out: Binding Affinity Ki, nM (SEM, n) hGCGR
# [9] = HEK293, cAMP, 37° C., 0.1% bovine casein and 1.0% human serum albumin, percent of maximal response to GIP(1-42)NH2, read-out: hGIPR Emax, % ± SEM
# [10] = 37° C., 0.1% bovine casein (no human serum albumin), geometric mean, read-out: hGIPR EC50, nM (SEM, n)
# Sequence of hGLP-1R (P43220 24-463): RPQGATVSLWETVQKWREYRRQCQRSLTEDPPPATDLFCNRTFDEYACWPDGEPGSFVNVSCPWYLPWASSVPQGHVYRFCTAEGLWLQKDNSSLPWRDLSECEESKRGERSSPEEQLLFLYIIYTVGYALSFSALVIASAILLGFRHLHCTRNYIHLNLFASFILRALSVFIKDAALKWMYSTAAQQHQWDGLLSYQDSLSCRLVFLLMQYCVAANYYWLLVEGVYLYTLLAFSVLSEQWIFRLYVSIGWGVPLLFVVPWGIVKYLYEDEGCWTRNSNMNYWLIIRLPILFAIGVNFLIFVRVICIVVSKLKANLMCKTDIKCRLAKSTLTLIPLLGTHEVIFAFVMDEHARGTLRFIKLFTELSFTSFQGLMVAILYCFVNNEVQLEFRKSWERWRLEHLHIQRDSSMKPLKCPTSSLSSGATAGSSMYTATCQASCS
# T1 sequence (P47871 26-477): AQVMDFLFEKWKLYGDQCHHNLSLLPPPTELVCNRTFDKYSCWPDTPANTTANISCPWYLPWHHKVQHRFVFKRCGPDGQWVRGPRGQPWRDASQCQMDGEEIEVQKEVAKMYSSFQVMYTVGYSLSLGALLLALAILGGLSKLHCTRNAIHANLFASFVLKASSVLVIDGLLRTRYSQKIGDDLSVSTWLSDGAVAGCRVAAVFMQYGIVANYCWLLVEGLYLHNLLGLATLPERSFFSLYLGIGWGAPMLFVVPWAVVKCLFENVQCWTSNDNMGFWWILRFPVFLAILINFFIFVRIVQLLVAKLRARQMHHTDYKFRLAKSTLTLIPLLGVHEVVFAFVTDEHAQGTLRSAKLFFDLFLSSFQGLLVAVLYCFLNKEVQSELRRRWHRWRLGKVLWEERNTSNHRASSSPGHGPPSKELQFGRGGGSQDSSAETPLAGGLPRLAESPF
# T3 sequence (P47871 26-477): as above
# T5 sequence (P43220 24-463): as the sequence (P43220 24-463) above
smiles,measurement,setting,value
CC[C@H](C)[C@H](NC(=O)[C@H](CC(C)C)NC(=O)[C@](C)(Cc1ccc(O)cc1)NC(=O)[C@@H](CCC(=O)O)NC(=O)[C@@H](NC(=O)[C@H](Cc1ccccc1)NC(=O)[C@H](CCCCNC(=O)COCCOCCNC(=O)COCCOCCNC(=O)CC[C@H](NC(=O)CCCCCCCCCCCCC(=O)O)C(=O)O)NC(=O)C(C)(C)NC(=O)[C@H](CCC(N)=O)NC(=O)[C@H](C)NC(=O)[C@H](CCC(N)=O)NC(=O)[C@H](CCCN)NC(=O)[C@H](CC(=O)O)NC(=O)[C@H](CC(C)C)NC(=O)[C@](C)(CC(C)C)NC(=O)[C@@H](NC(=O)C(C)(C)NC(=O)[C@H](Cc1ccncc1)NC(=O)[C@H](CC(=O)O)NC(=O)[C@H](CO)NC(=O)[C@@H](NC(=O)[C@](C)(Cc1ccccc1F)NC(=O)[C@@H](NC(=O)CNC(=O)[C@H](CCC(=O)O)NC(=O)C(C)(C)NC(=O)[C@@H](N)Cc1ccc(O)cc1)[C@@H](C)O)[C@@H](C)O)[C@@H](C)CC)[C@@H](C)CC)C(=O)N[C@@H](CCCCNC(=O)COCCOCCNC(=O)COCCOCCNC(=O)CC[C@H](NC(=O)CCCCCCCCCCCCC(=O)O)C(=O)O)C(=O)NCC(=O)NCC(=O)N1CCC[C@H]1C(=O)N[C@@H](CO)C(=O)N[C@@H](CO)C(=O)NCC(=O)N[C@@H](C)C(=O)N1CCC[C@H]1C(=O)N1CCC[C@H]1C(=O)N1CCC[C@H]1C(=O)N[C@@H](CO)C(N)=O [Example 488],EC50,hGCGR; [4],> 10100 nM
same,EC50,hGCGR; [5],> 9950 nM
same,Emax,hGLP-1R; [6],113%
same,EC50,hGLP-1R; [7],0.207 nM
same,EC50,"hGLP-1R; 37° C., 0.1% bovine casein and 1.0% human serum albumin, geometric mean (SEM, n)",13 nM
same,Ki,"[1]; human GIPR, geometric mean (SEM, n), read-out: Binding Affinity Ki, nM (SEM, n) hGIPR",0.064 nM
same,Ki,[2]; [8],> 958 nM
same,Emax,hGIPR; [9],85.5%
same,EC50,hGIPR; [10],0.0115 nM
same,EC50,"hGIPR; 37° C., 0.1% bovine casein and 1.0% human serum albumin, geometric mean (SEM, n), read-out: hGIPR EC50, nM (SEM, n)",0.718 nM
CC[C@H](C)[C@H](NC(=O)[C@H](CC(C)C)NC(=O)[C@](C)(Cc1ccc(O)cc1)NC(=O)[C@H](CCCCNC(=O)COCCOCCNC(=O)COCCOCCNC(=O)CC[C@H](NC(=O)CCCCCCCCCOc1ccc(C(=O)O)cc1)C(=O)O)NC(=O)[C@@H](NC(=O)[C@H](Cc1ccccc1)NC(=O)[C@H](CCC(=O)O)NC(=O)C(C)(C)NC(=O)[C@H](CCC(N)=O)NC(=O)[C@H](C)NC(=O)[C@H](CCCCNC(=O)COCCOCCNC(=O)COCCOCCNC(=O)CC[C@H](NC(=O)CCCCCCCCCOc1ccc(C(=O)O)cc1)C(=O)O)NC(=O)[C@H](CCCN)NC(=O)[C@H](CC(=O)O)NC(=O)[C@H](CC(C)C)NC(=O)[C@](C)(CC(C)C)NC(=O)[C@@H](NC(=O)[C@H](CO)NC(=O)[C@H](Cc1ccncc1)NC(=O)[C@H](CC(=O)O)NC(=O)[C@H](CO)NC(=O)[C@@H](NC(=O)[C@](C)(Cc1ccccc1F)NC(=O)[C@@H](NC(=O)CNC(=O)[C@H](CCC(=O)O)NC(=O)C(C)(C)NC(=O)[C@@H](N)Cc1ccc(O)cc1)[C@@H](C)O)[C@@H](C)O)[C@@H](C)CC)[C@@H](C)CC)C(=O)N[C@@H](CCC(=O)O)C(=O)NCC(=O)NCC(=O)N1CCC[C@H]1C(=O)N[C@@H](CO)C(=O)N[C@@H](CO)C(=O)NCC(=O)N[C@@H](C)C(=O)N1CCC[C@H]1C(=O)N1CCC[C@H]1C(=O)N1CCC[C@H]1C(=O)N[C@@H](CO)C(N)=O [Example 128],EC50,"hGCGR; hGCGR EC50, nM (SEM, n), incubated at 37° C., 0.1% bovine casein (no human serum albumin), geometric mean",> 9950 nM
same,Ki,[1],0.0314 nM
same,Ki,[2],> 955 nM
same,Emax,"hGIPR; HEK293, read-out: hGIPR Emax, % ± SEM, percent of maximal response to GIP(1-42)NH2, 37° C., 0.1% bovine casein, arithmetic mean",98.5 ± 2.47%
same,EC50,"hGIPR; hGIPR EC50, nM (SEM, n), incubated at 37° C., 0.1% bovine casein (no human serum albumin), geometric mean",0.0232 nM
CCCCCCCCCCCC(=O)N[C@@H](CCC(=O)NCCOCCOCC(=O)NCCOCCOCC(=O)NCCCC[C@H](NC(=O)[C@H](CCCN)NC(=O)[C@H](CC(=O)O)NC(=O)[C@H](CC(C)C)NC(=O)[C@](C)(CC(C)C)NC(=O)[C@@H](NC(=O)[C@H](CO)NC(=O)[C@H](Cc1ccncc1)NC(=O)[C@H](CC(=O)O)NC(=O)[C@H](CO)NC(=O)[C@@H](NC(=O)[C@](C)(Cc1ccccc1F)NC(=O)[C@@H](NC(=O)CNC(=O)[C@H](CCC(=O)O)NC(=O)C(C)(C)NC(=O)[C@@H](N)Cc1ccc(O)cc1)[C@@H](C)O)[C@@H](C)O)[C@@H](C)CC)C(=O)N[C@@H](C)C(=O)N[C@@H](CCC(N)=O)C(=O)NC(C)(C)C(=O)N[C@@H](CCC(=O)O)C(=O)N[C@@H](Cc1ccccc1)C(=O)N[C@H](C(=O)N[C@H](CCC(=O)O)C(=O)N[C@@](C)(Cc1ccc(O)cc1)C(=O)N[C@@H](CC(C)C)C(=O)N[C@H](C(=O)N[C@@H](CCCCNC(=O)COCCOCCNC(=O)COCCOCCNC(=O)CC[C@H](NC(=O)CCCCCCCCCCC)C(=O)O)C(=O)NCC(=O)NCC(=O)N1CCC[C@H]1C(=O)N[C@@H](CO)C(=O)N[C@@H](CO)C(=O)NCC(=O)N[C@@H](C)C(=O)N1CCC[C@H]1C(=O)N1CCC[C@H]1C(=O)N1CCC[C@H]1C(=O)N[C@@H](CO)C(N)=O)[C@@H](C)CC)[C@@H](C)CC)C(=O)O [Example 139],EC50,"hGCGR; incubated at 37° C., 0.1% bovine casein (no human serum albumin), geometric mean, read-out: hGCGR EC50, nM (SEM, n)",> 9950 nM
same,Emax,"hGLP-1R; HEK293, percent of maximal response to GLP-1(7-36)NH2, 37° C.",111%
same,EC50,"hGLP-1R; incubated at 37° C., 0.1% bovine casein (no human serum albumin), geometric mean",0.141 nM
same,Ki,[3],0.268 nM
same,Ki,[2]; [8],109 nM
same,EC50,"hGIPR; incubated at 37° C., 0.1% bovine casein (no human serum albumin), geometric mean, read-out: hGIPR EC50, nM (SEM, n)",0.0108 nM
CC[C@H](C)[C@H](NC(=O)[C@H](CC(C)C)NC(=O)[C@](C)(Cc1ccc(O)cc1)NC(=O)[C@H](CCCCNC(=O)COCCOCCNC(=O)[C@H]1CC[C@H](CNC(=O)CC[C@H](NC(=O)CCCCCCCCCCCCC(=O)O)C(=O)O)CC1)NC(=O)[C@@H](NC(=O)[C@H](Cc1ccccc1)NC(=O)[C@H](CCCN)NC(=O)C(C)(C)NC(=O)[C@H](CCC(N)=O)NC(=O)[C@H](C)NC(=O)[C@H](CCC(N)=O)NC(=O)[C@H](CCCN)NC(=O)[C@H](CC(=O)O)NC(=O)[C@H](CC(C)C)NC(=O)[C@](C)(CC(C)C)NC(=O)[C@@H](NC(=O)C(C)(C)NC(=O)[C@H](Cc1ccncc1)NC(=O)[C@H](CC(=O)O)NC(=O)[C@H](CO)NC(=O)[C@@H](NC(=O)[C@](C)(Cc1ccccc1F)NC(=O)[C@@H](NC(=O)CNC(=O)[C@H](CCC(=O)O)NC(=O)C(C)(C)NC(=O)[C@@H](N)Cc1ccc(O)cc1)[C@@H](C)O)[C@@H](C)O)[C@@H](C)CC)[C@@H](C)CC)C(=O)N[C@@H](CCCCNC(=O)COCCOCCNC(=O)[C@H]1CC[C@H](CNC(=O)CC[C@H](NC(=O)CCCCCCCCCCCCC(=O)O)C(=O)O)CC1)C(=O)NCC(=O)NCC(=O)N1CCC[C@H]1C(=O)N[C@@H](CO)C(=O)N[C@@H](CO)C(=O)NCC(=O)N[C@@H](C)C(=O)N1CCC[C@H]1C(=O)N1CCC[C@H]1C(=O)N1CCC[C@H]1C(=O)N[C@@H](CO)C(N)=O [Example 472],EC50,hGCGR; [4],> 9950 nM
same,EC50,hGCGR; [5],> 9950 nM
same,Emax,hGLP-1R; [6],118%
same,EC50,hGLP-1R; [7],0.154 nM
same,Ki,[3],0.254 nM
same,Ki,[2]; [8],258 nM
same,Emax,hGIPR; [9],76.3%
same,EC50,hGIPR; [10],0.0131 nM
